“Also recorded” adds a separate entry of the source.
Assays:
BALB/c mice = test: Neonatal tolerization of BALB/c mice, then autoantibody titers after immunization; assay type: in vivo, mouse; details: BALB/c neonates, 100 μg i.p. twice; immunized 6-7 weeks later with peptide Ia or mAb 5G12
Description: In order to either prevent induction of experimental SLE or to cure mice afflicted with the disease, the following procedures were used: (i) Newborn mice were tolerized with a peptide of the invention (100 μg of the peptide in PBS, intraperitoneally at 24 and 72 hours after birth). Six weeks later, the mice were immunized with the pathogenic autoantibody, e.g. 5G12 (16/6 Id+) and examined for disease manifestations; (ii) A first group of adult mice was injected with various concentrations of the peptides before disease induction with the pathogenic autoantibody or pathogenic T cell line; another group was injected with the peptides to be tested for their therapeutic effect six weeks following immunization at the peak of the serological response; and a further group was treated at 4-6 months post-immunization after the establishment of the overt SLE disease. The number of injections with the peptides was determined based on their effect on the disease induction and progression. The effect of the peptide treatment on T cell proliferation, on the autoantibody production and on the disease manifestations was then evaluated.
In order to further elucidate the role of the peptides in SLE, peptide Ia was utilized for the induction of tolerance in BALB/c mice. Newborn mice were injected twice (at day 1 and 3) with either peptide Ia or a control peptide. […]

SJL/J and BALB/c mice = test: Anti-nuclear extract (NE) antibodies in sera of immunized mice (ELISA); assay type: in vivo, mouse
Description: Five groups of mice were immunized according to Example 2, and their sera were tested for the presence of anti-NE antibodies.
ELISA was utilized to test the presence of the anti-NE antibodies in the sera of the mice, as follows: Plates (Nunc) were coated with 5 μg/ml of HeLa cells NE for 90 min. Thereafter plates were washed and blocked, and ELISA was continued the next day, as described in Example 2 for anti-DNA antibodies.

[1] = test system: T cell line specific to peptide IIIa of SJL origin; test: Proliferation and cytokine secretion of peptide IIIa-specific T cell line; assay type: cell-based, mouse
Description: A further test which can be conducted is to test for the ability of the analogs to inhibit cytokine secretion by the T cell line or by T lymphocytes oh lymph nodes of mice that are high responders to SLE-inducing autoantibodies. The cytokines are detected as follows: IL-1 activity is assessed either by ELISA using a pair of capture and detecting antibodies (as described below for IL-4, IL-6, IL-10) or using the LBRM-33(1A5) assay (Conlon, 1983) in which 1A5 cells are stimulated in the presence of phytohemagglutinin (PHA), with either supernatants or recombinant IL-1 at various concentrations to secrete IL-2. […] Stimulation of the CTLL line by IL-2 is measured after 24 hr by incorporation of ^3[H]-thymidine. IL-2 is directly detected using the IL-2 dependent CTLL line or by ELISA. Levels of IL-4, IL-6, IL-10, INFγ and TNFα in the supernatants are determined by ELISA using antibodies to the various cytokines (Phamingen, San Diego, Calif., USA) according to the manufacturer's instructions.
T cell lines and clones specific to the 16/6 Id were established from immunized lymph node cells as previously described (Axelrod and Mozes, 1986). […] At the end of 48 hours incubation, 0.5 μCi of ^3H-thymidine were added for an additional 18 hours, after which cells were harvested and radioactivity was counted. […]

[2] = BALB/c mice immunized as in Example 2
[3] = SJL/J mice immunized as in Example 2

TGYYMQWVKQSPEKSLEWIG [peptide Ia]
anti-DNA and anti-NE autoantibody titers after neonatal tolerization (BALB/c mice): did not produce significant titers of antibodies to either DNA or nuclear extract antigens; also recorded: produced lower levels of anti-DNA and anti-NE antibodies
anti-NE antibodies in sera (SJL/J and BALB/c mice; [2]): high levels of anti-NE antibodies
anti-NE antibodies in sera (SJL/J and BALB/c mice; [3]): lower levels of anti-NE antibodies

YYYCARFLWEPYAMDYWGQGS (YYCARFLWEPYAMDYWGQGS) [peptide IIIa, based on the CDR3 region of the VH chain of mAb 5G12]
anti-NE antibodies in sera (SJL/J and BALB/c mice; [2]): very low level of anti-NE antibodies
anti-NE antibodies in sera (SJL/J and BALB/c mice; [3]): high level of anti-NE antibodies
cytokine secretion of T cell line upon stimulation [1]: secreted the Thl-type cytokines, namely, IL-2, IFNγ and TNFα
